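Tested at 5 concentrations; 48 h exposure; 96-well plates; endpoints linearly interpolated, else capped at highest concentration. The concentration for 50% growth inhibition is given as GI50. TGI denotes the concentration required for complete inhibition of growth.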
How the values were obtained:
Experiment in all cases: NCI-60 cell line screen, 48 h
[1] = system: M14 melanoma
[2] = system: NCI-H226 lung
[3] = system: KM12 colon
[4] = system: UO-31 renal
[5] = system: SF-268 CNS
[6] = system: SW-620 colon
[7] = system: HCT-15 colon
[8] = system: HT29 colon
[9] = system: TK-10 renal
[10] = system: SNB-75 CNS

CC(=O)OC1CC[C@@]2(C)C(CC(OC3OC(CO)C(O)C(O)C3O)[C@]3(C)C2CCC24CC23CC[C@H]4C(C)CC(O)[C@@H](O)C(C)(C)O)C1(C)C (stereo not given in full)
TGI [1]: 22.6 µM | TGI [2]: 48.5 µM | TGI [3]: 19.7 µM | TGI [4]: > 50 µM | TGI [5]: > 50 µM | TGI [6]: 45.1 µM | TGI [7]: > 50 µM | TGI [8]: > 50 µM | TGI [9]: > 50 µM | TGI [10]: 32 µM

Cc1cccc2c1NC(c1c(C)[nH]c3ccccc13)C2 (stereo not given)
TGI [1]: > 100 µM | TGI [2]: > 100 µM | TGI [3]: > 100 µM | TGI [4]: > 100 µM | TGI [5]: > 100 µM | TGI [6]: > 100 µM | TGI [7]: > 100 µM | TGI [8]: > 100 µM | TGI [9]: > 100 µM | TGI [10]: > 100 µM

COc1ccc(/C=N\N2C(=O)Cc3ccccc32)cc1
TGI [1]: > 100 µM | TGI [2]: > 100 µM | TGI [3]: > 100 µM | TGI [4]: > 100 µM | TGI [5]: > 100 µM | TGI [6]: > 100 µM | TGI [7]: > 100 µM | TGI [8]: > 100 µM | TGI [9]: > 100 µM | TGI [10]: 62 µM

Cc1c(Br)cccc1NC(=O)c1sc2nc3c(cc2c1N)CN(Cc1ccccc1)CC3
GI50 [1]: 0.107 µM | TGI [1]: 0.386 µM | GI50 [2]: 1.18 µM | TGI [2]: 18.9 µM | GI50 [3]: 0.168 µM | TGI [3]: 10.2 µM | GI50 [4]: 0.412 µM | TGI [4]: > 50 µM | GI50 [5]: 0.525 µM | TGI [5]: 27.2 µM | GI50 [6]: 0.164 µM | TGI [6]: 7.15 µM | GI50 [7]: 0.165 µM | TGI [7]: > 50 µM | GI50 [8]: 0.179 µM | TGI [8]: 5.25 µM | GI50 [9]: 1.19 µM | TGI [9]: 16.1 µM | GI50 [10]: 0.28 µM | TGI [10]: 17.1 µM

CC(=O)O/N=C1\C=Cc2c(no[n+]2[O-])C1=O
TGI [1]: 33.2 µM | TGI [2]: > 100 µM | TGI [3]: 33.7 µM | TGI [4]: 28.3 µM | TGI [5]: 38.1 µM | TGI [6]: 9.04 µM | TGI [7]: 36.4 µM | TGI [8]: 32.4 µM | TGI [9]: 29 µM | TGI [10]: 35.5 µM

NC(N)=Nc1nc2cc(N)ccc2o1
TGI [1]: > 100 µM | TGI [2]: > 100 µM | TGI [3]: > 100 µM | TGI [4]: > 100 µM | TGI [5]: > 100 µM | TGI [6]: > 100 µM | TGI [7]: > 100 µM | TGI [8]: > 100 µM | TGI [9]: > 100 µM | TGI [10]: > 100 µM

CC([C@H]1CCC2C3CCC4C(=O)C(NC=O)=CC[C@]4(C)C3CC[C@@]21C)N(C)C (stereo not given in full)
GI50 [1]: 2.08 µM | TGI [1]: 4.39 µM | GI50 [2]: 4.72 µM | TGI [2]: 19.4 µM | GI50 [3]: 2.88 µM | TGI [3]: 14.2 µM | GI50 [4]: 1.98 µM | TGI [4]: 7.4 µM | GI50 [5]: 2.17 µM | TGI [5]: 5.48 µM | GI50 [6]: 2.13 µM | TGI [6]: 5.54 µM | GI50 [7]: 1.42 µM | TGI [7]: 4.26 µM | GI50 [8]: 0.505 µM | TGI [8]: 2.37 µM | GI50 [9]: 9.71 µM | TGI [9]: 29.4 µM | GI50 [10]: 3.66 µM | TGI [10]: 15.5 µM

COc1cc(Oc2cnc3cc(N)cc(N)c3n2)cc(OC)c1OC
GI50 [1]: 22.7 µM | TGI [1]: 76.2 µM | GI50 [2]: 45.6 µM | TGI [2]: > 100 µM | GI50 [3]: 24.9 µM | TGI [3]: > 100 µM | GI50 [4]: 35 µM | TGI [4]: > 100 µM | GI50 [5]: 67.3 µM | TGI [5]: > 100 µM | GI50 [6]: 44.3 µM | TGI [6]: > 100 µM | GI50 [7]: 50 µM | TGI [7]: > 100 µM | GI50 [8]: 18.5 µM | TGI [8]: 40.4 µM | GI50 [9]: 33.3 µM | TGI [9]: > 100 µM | GI50 [10]: 19.2 µM | TGI [10]: 72.4 µM

CC(C)n1c2c(c3ccccc3c1=O)C(=O)c1ccccc1-2
TGI [1]: > 100 µM | TGI [2]: > 100 µM | TGI [3]: > 100 µM | TGI [4]: > 100 µM | TGI [5]: > 100 µM | TGI [6]: > 100 µM | TGI [7]: > 100 µM | TGI [8]: > 100 µM | TGI [9]: > 100 µM | TGI [10]: > 100 µM

N#CC1(Cc2ccccc2Cl)c2ccccc2C=CN1C(=O)c1ccccc1 (stereo not given)
TGI [1]: > 100 µM | TGI [2]: > 100 µM | TGI [3]: > 100 µM | TGI [4]: > 100 µM | TGI [5]: > 100 µM | TGI [6]: > 100 µM | TGI [7]: > 100 µM | TGI [8]: > 100 µM | TGI [9]: > 100 µM | TGI [10]: > 100 µM

CC(CC(C)[C@H]1CCC2[C@H]3C(CC[C@@]21C)[C@@]1(C)CCC(O)C[C@H]1C[C@@H]3O)C(=O)O (stereo not given in full)
TGI [1]: > 100 µM | TGI [2]: > 100 µM | TGI [3]: > 100 µM | TGI [4]: > 100 µM | TGI [5]: > 100 µM | TGI [6]: > 100 µM | TGI [7]: > 100 µM | TGI [8]: > 100 µM | TGI [9]: > 100 µM | TGI [10]: > 100 µM

CCCCC#Cc1c(I)n(C2OC(CO[Si](C)(C)C(C)(C)C)C3OC(C)(C)OC32)c(=O)[nH]c1=O (stereo not given)
GI50 [1]: 17.6 µM | TGI [1]: 34.8 µM | GI50 [2]: 12.7 µM | TGI [2]: 25.6 µM | GI50 [3]: 11.7 µM | TGI [3]: 24.5 µM | GI50 [4]: 1.53 µM | TGI [4]: 11.2 µM | GI50 [5]: 10.3 µM | TGI [5]: 22.4 µM | GI50 [6]: 1.8 µM | TGI [6]: 4.15 µM | GI50 [7]: 2 µM | TGI [7]: > 100 µM | GI50 [8]: 8.21 µM | TGI [8]: 22.1 µM | GI50 [9]: 4.32 µM | TGI [9]: 16.8 µM | GI50 [10]: 12.1 µM | TGI [10]: 24.9 µM

COC(=O)c1nc(N)[nH]c(=O)c1-c1ccc(Cl)cc1
TGI [1]: > 100 µM | TGI [2]: > 100 µM | TGI [3]: > 100 µM | TGI [4]: > 100 µM | TGI [5]: > 100 µM | TGI [6]: > 100 µM | TGI [7]: > 100 µM | TGI [8]: > 100 µM | TGI [9]: > 100 µM | TGI [10]: > 100 µM

COc1cc(C2C3=C(COC3=O)N(CCO)c3cc4c(cc32)OCCO4)cc(OC)c1O (stereo not given)
GI50 [1]: 1.43 µM | TGI [1]: > 21 µM | GI50 [2]: > 19.5 µM | TGI [2]: > 50 µM | GI50 [3]: 1.5 µM | TGI [3]: > 37 µM | GI50 [4]: > 16.7 µM | TGI [4]: > 50 µM | GI50 [5]: 3.38 µM | TGI [5]: > 50 µM | GI50 [6]: 1.83 µM | TGI [6]: > 50 µM | GI50 [7]: 11.7 µM | TGI [7]: > 50 µM | GI50 [8]: 1.67 µM | TGI [8]: > 18.5 µM | GI50 [9]: 6.61 µM | TGI [9]: > 50 µM | GI50 [10]: 0.713 µM | TGI [10]: > 50 µM

CN1CCN(c2nc(NCCNc3ccnc4cc(Cl)ccc34)c3ccccc3n2)CC1
GI50 [1]: 1.83 µM | TGI [1]: 3.59 µM | GI50 [2]: 10.6 µM | TGI [2]: 28.7 µM | GI50 [3]: 2.43 µM | TGI [3]: 12.1 µM | GI50 [4]: 1.55 µM | TGI [4]: 3.53 µM | GI50 [5]: 2.72 µM | TGI [5]: 13.1 µM | GI50 [6]: 0.391 µM | TGI [6]: 13.3 µM | GI50 [7]: 3.02 µM | TGI [7]: 10.8 µM | GI50 [8]: 0.699 µM | TGI [8]: 4.18 µM | GI50 [9]: 2.72 µM | TGI [9]: 7.93 µM | GI50 [10]: 1.84 µM | TGI [10]: 4.96 µM

— PubChem BioAssay (NCI)
